Test results published in patent EP3820512B1, “IMMUNOMODULATING COMPOSITIONS COMPRISING OLIGOSACCHARIDE DERIVATIVES” (priority 2018, dated 2020).

What was measured:
TLR2 = molecular target: T1, TLR2 (Homo sapiens, UniProt O60603); assay: TLR2 activity in PMA-stimulated THP-1 monocyte cells, ELISA of cell lysate; type: cell-based; conditions: THP-1 cells
T1 construct: endogenous in cells; host or cells: THP-1 monocyte cells stimulated with PMA
Experimental: THP-1 monocyte cells (1×10^5) were stimulated with 200nM of PMA for 48h and treated with different concentrations of test compounds. The TLR2 activity was measured after 24 h from the cell lysate using ELISA.

[1] = test system: THP-1 (human monocytic) cells; assay: Cytokine response (IL-1β, TNF-α, IL-10) of THP-1 cells treated with compounds; type: cell-based; conditions: 100-200 µM
Experimental: When THP-1 (human monocytic) cells were treated with 100-200 µM of compounds 8, 14, 17, 23, 29, and 32, they produced an increased IL-1β and TNF-α response, decreased anti-inflammatory cytokine IL-10 (FIG. 4).

[2] = test system: human peripheral blood monocytes; assay: IL-10 production in human peripheral blood monocytes; type: cell-based; conditions: after 48 h
hPBMC = assay: Cytotoxicity in hPBMC, MTT cell proliferation kit; type: cell-based, human; conditions: 0.1, 1.0, 10, 100 and 1000 µM, 24h
Experimental: The cells were treated with compounds and incubated for 24h. Cell viability was assessed using MTT cell proliferation kit (Promega).

HUVECs = assay: Cytotoxicity in HUVECs, MTT cell proliferation kit; type: cell-based, human; conditions: 100 µM, 24h
Experimental: Selected TLR2/4 antagonist compounds 2, 6, 7, 8, 14, 17 and 32 were evaluated for cytotoxicity in HUVECs at 100 µM concentration. The cells were treated with compounds and incubated for 24h. Cell viability was assessed using MTT cell proliferation kit (Promega). All the compounds were not toxic to HUVECs (FIG. 15).

[3] = test system: VEGF induced tube formation in HUVECs; assay: Anti-angiogenic activity, Tube Formation kit, VEGF induced; type: cell-based, human; conditions: VEGF 100ng/mL
Experimental: Selected TLR2/4 antagonist compounds 2, 6, 7, 8, 14, 17 and 32 were evaluated for anti-angiogenic activity using the Tube Formation kit (Cat#3470-096-K). VEGF (100ng/mL) was used as positive control. These compounds have potential applications in diseases associated with pathological angiogenesis such as solid tumor, […], diabetic retinopathy as well as AMD.

[4] = test system: hyperoxia induced BPD in mouse pups; assay: Hyperoxia-exposed BPD mouse model (newborn pups); type: in vivo
Excerpt: Neonatal mice and humans undergo similar stages of lung development but differ with respect to the duration of each stage and its temporal relationship to gestational age. The lungs of the mouse born at term are in the saccular stage and are surfactant sufficient; this can be considered somewhat akin to a human preterm neonate in the same stage of lung development that has been exposed to a full complement of antenatal steroids (which is known to enhance surfactant production). In terms of mimicking the human condition, the most successful hyperoxia models are those that limit exposure to hyperoxia to the saccular stage of pulmonary development. The mouse BPD model involves exposing newborn mice (postnatal day 1 or PN1) to 100% oxygen till PN4 followed by recovery in room air (RA) for another 10 days.
After the recovery period, their lungs were harvested and processed for quantitative PCR, western blotting, histopathology and ELISA.
After the recovery period, their lungs were harvested and processed for quantitative PCR, western blotting and histopathology and ELISA.
BPD is characterized by large simplified alveoli, inflammation, increased cell death, decreased cell proliferation, dysmorphic capillary configuration, and variable interstitial cellularity and/or fibroproliferation. […] This is determined by measuring the alveolar chord length, septal thickness and radial alveolar count (RAC). In BPD, the alveolar area increases which is characterized by increase in the diameter of the alveolar sacs, the septa become thickened (thus interfering in gaseous exchange) and the RAC, a parameter used to assess the complexity of terminal respiratory unit by pulmonologists, decreases as a result of arrested lung development.

TLR4 = TLR4 (Homo sapiens, UniProt O00206); assay: TLR4 inhibitory and activating activity in THP-1 cells at low and high concentrations; type: cell-based; set-up: endogenous in cells; host or cells: THP-1 (human monocytic) cells
[5] = test system: normal lung epithelial cells (AT-1); type: cell-based, human; conditions: 1 mM and 2 mM, 48h, trypan blue
Experimental: The cells were treated with compounds and incubated for 48h.

[6] = Concentration 75-100 µM, THP-1 cells

Chain of TLR4 (O00206 24-839): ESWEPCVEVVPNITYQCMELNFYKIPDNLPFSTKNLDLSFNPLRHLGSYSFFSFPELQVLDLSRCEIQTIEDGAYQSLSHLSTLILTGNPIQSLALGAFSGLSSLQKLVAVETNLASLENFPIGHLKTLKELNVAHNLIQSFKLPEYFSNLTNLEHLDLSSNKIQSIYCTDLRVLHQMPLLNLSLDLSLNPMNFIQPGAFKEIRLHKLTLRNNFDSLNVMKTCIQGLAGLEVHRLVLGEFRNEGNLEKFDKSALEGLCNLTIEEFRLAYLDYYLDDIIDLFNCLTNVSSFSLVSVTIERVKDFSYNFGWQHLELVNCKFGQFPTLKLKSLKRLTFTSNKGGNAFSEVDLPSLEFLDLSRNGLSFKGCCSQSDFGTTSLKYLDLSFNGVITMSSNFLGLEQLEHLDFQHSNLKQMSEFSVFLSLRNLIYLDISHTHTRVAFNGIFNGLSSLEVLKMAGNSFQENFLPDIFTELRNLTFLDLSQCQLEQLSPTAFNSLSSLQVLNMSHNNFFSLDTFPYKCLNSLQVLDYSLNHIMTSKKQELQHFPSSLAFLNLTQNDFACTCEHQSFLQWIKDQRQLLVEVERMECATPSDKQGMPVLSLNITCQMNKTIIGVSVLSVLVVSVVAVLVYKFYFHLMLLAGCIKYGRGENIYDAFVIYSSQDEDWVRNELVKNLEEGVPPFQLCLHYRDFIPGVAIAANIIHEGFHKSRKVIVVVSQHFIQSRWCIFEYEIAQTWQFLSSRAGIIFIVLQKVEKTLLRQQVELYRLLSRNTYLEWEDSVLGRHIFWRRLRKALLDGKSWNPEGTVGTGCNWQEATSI
Chain of TLR4 (Q9Y6Y9 17-160 partner limits assumed): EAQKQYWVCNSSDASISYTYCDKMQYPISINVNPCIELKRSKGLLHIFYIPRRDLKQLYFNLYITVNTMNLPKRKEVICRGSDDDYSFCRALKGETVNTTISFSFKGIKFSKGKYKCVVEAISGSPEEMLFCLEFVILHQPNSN
T1 sequence (O60603 21-784): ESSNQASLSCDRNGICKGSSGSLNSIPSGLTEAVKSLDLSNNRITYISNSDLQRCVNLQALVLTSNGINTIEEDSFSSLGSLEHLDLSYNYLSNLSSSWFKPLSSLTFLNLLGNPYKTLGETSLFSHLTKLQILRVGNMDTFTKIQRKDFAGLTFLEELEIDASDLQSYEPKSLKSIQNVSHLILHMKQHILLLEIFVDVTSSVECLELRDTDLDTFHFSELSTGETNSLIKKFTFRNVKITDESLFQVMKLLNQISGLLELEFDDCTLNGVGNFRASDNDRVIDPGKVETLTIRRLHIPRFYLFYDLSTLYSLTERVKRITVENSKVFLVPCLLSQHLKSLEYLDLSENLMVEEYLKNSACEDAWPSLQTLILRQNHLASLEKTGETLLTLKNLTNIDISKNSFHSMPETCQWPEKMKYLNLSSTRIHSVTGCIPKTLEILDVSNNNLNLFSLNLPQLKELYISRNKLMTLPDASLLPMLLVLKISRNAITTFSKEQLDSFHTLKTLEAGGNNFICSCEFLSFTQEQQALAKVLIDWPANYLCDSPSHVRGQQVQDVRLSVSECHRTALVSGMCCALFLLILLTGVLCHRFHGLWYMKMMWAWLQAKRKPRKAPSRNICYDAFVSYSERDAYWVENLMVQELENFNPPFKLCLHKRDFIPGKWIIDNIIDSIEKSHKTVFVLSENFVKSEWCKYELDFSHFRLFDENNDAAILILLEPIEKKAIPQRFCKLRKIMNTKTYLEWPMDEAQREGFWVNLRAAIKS

| Structure (SMILES) | % inhibition over control TLR2 (TLR2; Concentration 1-10 µM) | % inhibition over control TLR2 (TLR2; Concentration 75-100 µM) | IL-1β response [1] | TNF-α response [1] | anti-inflammatory cytokine IL-10 [1] | IL-10 production ([2]; 0.1-1.0 µM) | IL-10 production ([2]; 10-100 µM) | cytotoxicity in hPBMC (cell viability) (hPBMC) | cytotoxicity in HUVECs (cell viability) (HUVECs) | VEGF induced tube formation [3] | TLR4 inhibition in vivo ([4]; neonatal pups with BPD) | lung architecture ([4]; saline (IV) and nanosuspension (IN) formulation) | % inhibition over control TLR4 (TLR4; Concentration 1-10 µM, THP-1 cells) | % inhibition over control TLR4 (TLR4; [6]) | TLR4 modulatory activity (TLR4; summary in words) | TLR2/4 antagonist activity (TLR4; summary in words, as shown in Table-1 (FIG. 1), TLR2 and TLR4) | cytotoxicity in normal lung epithelial cells (AT-1) [5] | % activation over control TLR2 (TLR2; Concentration 1-10 µM) | % activation over control TLR2 (TLR2; Concentration 75-100 µM) | % activation over control TLR4 (TLR4; [6]) |
| --- | --- | --- | --- | --- | --- | --- | --- | --- | --- | --- | --- | --- | --- | --- | --- | --- | --- | --- | --- | --- |
| CC(=O)NC1[C@H](Oc2ccc(B3OC(C)(C)C(C)(C)O3)cc2)O[C@H](CO)[C@@H](O)[C@@H]1O (single isomer, unassigned) [Compound 32, p-Pinacoloneboronatephenyl 2-acetamido-2-deoxy-β-D-glucopyranoside] | +++ (+++ means that the % of inhibition or activation is in the range of 75-95%) | + (+ means that the % of inhibition or activation is in the range of 15-25%) | increased | increased | decreased | increase | decrease | not toxic | not toxic | significantly decreased | inhibit | restored | +++ (+++ means that the % of inhibition or activation is in the range of 75-95%) | +++ (+++ means that the % of inhibition or activation is in the range of 75-95%) | concentration dependent TLR4 modulatory activity | potent TLR2/4 antagonists |  |  |  |  |
| CC(=O)O[C@H]1C(=O)[C@@]2(C)[C@H]([C@H](OC(=O)c3ccccc3)[C@]3(O)C[C@H](OC(=O)[C@H](O)[C@@H](NC(=O)c4ccccc4)c4ccccc4)C(C)=C1C3(C)C)[C@]1(OC(C)=O)CO[C@@H]1C[C@@H]2O [Taxol, reference compound] |  |  |  |  |  |  |  |  |  |  |  |  |  |  |  |  | toxic |  |  |  |
| CC(=O)NC1[C@H](Oc2ccc3c(C)cc(=O)oc3c2)O[C@H](CO)[C@@H](O)[C@@H]1O (single isomer, unassigned) [Compound 29] |  |  | increased | increased | decreased |  |  |  |  |  |  |  |  |  |  |  | not toxic | ++ (++ means that the % of inhibition or activation is in the range of 25-75%) | + (+ means that the % of inhibition or activation is in the range of 15-25%) | + (+ means that the % of inhibition or activation is in the range of 15-25%) |
